Results taken from ChEMBL document CHEMBL1158204, “Metabolites from an Antarctic sponge-associated bacterium, Pseudomonas aeruginosa” (1996).
The source made the active and inactive calls. The rule behind the calls is not given here.

Tests used:
Type in all cases: functional
Conditions in all cases: for MIC: 48 h
[1] = tested on: Staphylococcus aureus; test: Antibacterial activity against Staphylococcus aureus after 2 days by disk assay
[2] = tested on: Micrococcus luteus; test: Antibacterial activity against Micrococcus luteus after 2 days by disk assay
[3] = tested on: Bacillus cereus; test: Antibacterial activity against Bacillus cereus after 2 days by disk assay

SMILES | MIC [1] | MIC [2] | MIC [3] | Activity [1] | Activity [2] | Activity [3]
O=C(O)c1cccc2nc3ccccc3nc12 [PHENAZINE-1-CARBOXYLIC ACID] | < 5 µg/mL | < 5 µg/mL | < 0.5 µg/mL |  |  | 
NC(=O)c1cccc2nc3ccccc3nc12 | < 5 µg/mL | < 5 µg/mL | < 0.5 µg/mL |  |  | 
CSCC[C@@H]1NC(=O)[C@@H]2CCCN2C1=O |  |  |  | inactive | inactive | inactive
O=C1N[C@@H](Cc2ccccc2)C(=O)N2CCC[C@@H]12 |  |  |  | inactive | inactive | inactive
CC[C@H](C)[C@@H]1NC(=O)[C@@H]2CCCN2C1=O |  |  |  | inactive | inactive | inactive
CC(C)[C@@H]1NC(=O)[C@@H]2CCCN2C1=O |  |  |  | inactive | inactive | inactive
CC(C)C[C@@H]1NC(=O)[C@@H]2CCCN2C1=O |  |  |  | inactive | inactive | inactive
O=C1N[C@@H](Cc2ccc(O)cc2)C(=O)N2CCC[C@@H]12 |  |  |  | inactive | inactive | inactive
